# Experimental data taken from article PMC11856857, “Protease-Resistant, Broad-Spectrum Antimicrobial Peptides with High Antibacterial and Antifungal Activity” (Life, 2025).
# Where a SMILES comes first, the peptide text is derived from it.
# How the values were obtained:
# [1] = test system: ESKAPE pathogens, multi-drug-resistant A. flavus (AF), and C. albicans (CA) strains
# Protocol: (§2) Clinically resistant bacterial strains that are classified as “ESKAPE pathogens”, including vancomycin-resistant Enterococcus faecium (VRE), methicillin-resistant S. aureus (MRSA), Klebsiella pneumoniae (KP), Acinetobacter baumannii (AB), P. aeruginosa (PA) by WHO21, multi-drug-resistant Aspergillus flavus (AF), C. albicans (CA), and C. krusei (CK), were provided by Acibadem Labmed.
# (§3) The antibacterial activity of the bacterial strains was determined using the EUCAST broth microdilution method [24]. Bacterial strains were streaked into the MHA and incubated at 37 °C overnight. The initial doses were adjusted to 1024 µg/mL using a peptide concentration measurement kit (Pierce™ Quantitative Fluorometric Peptide Assay, Thermo Scientific™) and serially diluted to 0.125 µg/mL. All samples were tested in triplicate [25, 26]. The antifungal activity of the Candida species was measured in accordance with the guidelines in CLSI document M27-A3 [27].
# Aspergillus flavus (AF) = conditions: clinical strain AF1
# Protocol: as §2, §3
# proteinase K = target: T1, proteinase K (Parengyodontium album, UniProt P06873); experiment: Stability toward enzymatic degradation (protease resistance assay); type: in vitro ADME; conditions: peptide 1 mg/mL in TBS (50 mM Tris, 150 mM NaCl, pH 7.6) with 10% DMSO, proteinase K 1 mg/mL (30 U/mg), 37 °C, overnight (also 10 min, 30 min), HPLC at 214 nm
# T1 construct: purchased Qiagen
# Protocol: Peptide solutions were prepared at a final concentration of 1 mg/mL in TBS buffer (50 mM Tris, 150 mM NaCl, pH 7.6) including 10% DMSO. The proteinase K solution was adjusted to 1 mg/mL (enzyme activity = 30 U/mg). The peptide solution was then incubated at 37 °C overnight in an orbital shaker. After incubation, the reaction was blocked by adding 1% TFA (100 µL) in water. Peptide solutions with/without the proteinase K enzyme were analyzed at 214 nm using HPLC with an analytic column (AdvanceBio Peptide Plus, 2.1 × 150 mm, 2.7 µm, LC column, Agilent Technologies, Santa Clara, CA, USA) following the linear gradient method (30 min in a range of 5–80% acetonitrile including 0.025% TFA). MIC experiments were repeated to measure biological activities after treating the peptides with proteinase K.
# [2] = test system: Klebsiella pneumoniae (KP)
# Protocol: as §3
# C. albicans ATCC 10231 = type: cell-based, Candida albicans
# [3] = test system: S. aureus (ATCC 29213) inoculated wound
# [4] = test system: vancomycin-resistant Enterococcus faecium (VRE)
# Protocol: as §2, §3
# [5] = test system: Acinetobacter baumannii (AB)
# Protocol: as §2, §3
# [6] = test system: methicillin-resistant S. aureus (MRSA)
# Protocol: as §3
# [7] = test system: resistant Klebsiella pneumoniae (KP) strain; type: cell-based; conditions: resistant (KP) strain
# HaCaT cell line = type: cell-based, human; conditions: 24 h
# Protocol: (§1) 3T3 and HaCaT cells were grown in DMEM consisting of 1% pen/strep and 10% FBS. A total of 5 × 10^4 cells were loaded into each well of a 96-well plate and incubated at 37 °C using a 5% CO2 incubator. All samples were measured in triplicate between 0.5–32 µg/mL concentrations and incubated at 37 °C for 24 h in a 5% CO2 incubator. Only cells and Mag-2 were used as negative and positive controls, respectively. After 24 h, cell cytotoxicity was evaluated using a cell proliferation kit (MTT, Roche, Basel, Switzerland) following the kit protocol and analyzed at 550 nm and 690 nm using a microplate reader (Gen5 Synergy HT BioTek). The concentration of peptides that killed 50% of the cells was determined as the IC50 in the cytotoxicity experiments.
# 3t3 cell line = type: cell-based, mouse; conditions: 24 h
# Protocol: as §1
# [8] = test system: S. aureus (ATCC 29213)-infected silk suture wound; experiment: Surgical site infection model; type: in vivo, Wistar rats; conditions: MICX40, 100 µL topically once, 3 h after treatment; p < 0.01
# Protocol: Two McFarland S. aureus (ATCC 29213) bacteria were used for suture contamination. The 1.5 cm silk sutures (3-0) were incubated in brain heart infusion (BHI) broth at 37 °C, 150 rpm for 10 min. At the end of the incubation, the sutures were dried on sterile filter paper for 10 min. After drying, one of the sutures was placed in BHI broth, and the bacteria were measured. The number of bacteria obtained from the suture was 7 × 10^5 CFU/mL.
# The rats were randomly divided into four groups consisting of seven rats per group and anesthetized with isoflurane. The back of the rat was shaved, sterilized with 70% ethanol, and two 1.5 cm full-thickness wounds were incised centrally on the dorsal midline of the neck. A 1.5 cm S. aureus (ATCC 29213)-infected 3-0 silk suture was placed into the wound incision. A staple was attached to the middle of the incision to prevent the rat from removing the infected suture. After implantation of the suture into the wound, the rats were treated topically once with 100 µL of D-TN6 (MICX40), ampicillin (MICX40), or SF. The animals were decapitated 3 h after treatment. Wound areas were dissected and placed into BHI broth. After homogenization, the bacteria on the wound were counted.
# [9] = MICX40 topically twice a day for 10 days, ELISA, means ± S.E.M.
# Protocol for C.albicans (CA): as §3
# Protocol for C.krusei (CK): as §3
# Protocol for P. aeruginosa (PA): as §3
# T1 sequence (P06873 106-384): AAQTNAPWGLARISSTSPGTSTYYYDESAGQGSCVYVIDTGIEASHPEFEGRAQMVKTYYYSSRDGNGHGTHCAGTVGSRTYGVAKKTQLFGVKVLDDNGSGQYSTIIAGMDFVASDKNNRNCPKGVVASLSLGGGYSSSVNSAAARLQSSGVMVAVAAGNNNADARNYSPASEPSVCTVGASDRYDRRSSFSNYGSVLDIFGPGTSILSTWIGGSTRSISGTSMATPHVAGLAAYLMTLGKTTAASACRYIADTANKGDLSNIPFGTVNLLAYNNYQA
structure (smiles),measurement,setting,value
CC(C)C[C@@H](NC(=O)[C@H](N)CCCNC(=N)N)C(=O)N[C@H](CC(C)C)C(=O)N[C@H](CCCNC(=N)N)C(=O)N[C@H](CC(C)C)C(=O)N[C@H](CC(C)C)C(=O)N[C@H](CC(C)C)C(=O)N[C@H](CCCNC(=N)N)C(=O)N[C@H](CC(C)C)C(=O)N[C@H](CC(C)C)C(=O)N[C@H](CCCNC(=N)N)C(N)=O [D-TN6] (HELM PEPTIDE1{[dR].[dL].[dL].[dR].[dL].[dL].[dL].[dR].[dL].[dL].[dR].[am]}$$$$V2.0),MIC range against seven species resistant to current antibiotics,[1],0.25 to 4 µg/mL
same,MIC AF1,Aspergillus flavus (AF),4 µg/mL
same,MIC CA 1,C.albicans (CA); clinical strain CA 1,2 µg/mL
same,MIC CA 2,C.albicans (CA); clinical strain CA 2,2 µg/mL
same,MIC CA 3,C.albicans (CA); clinical strain CA 3,1 µg/mL
same,Stability toward proteinase K (HPLC),proteinase K,resistant to proteinase K
same,Stability toward proteinase K (HPLC),proteinase K; listed as D- TN6,highly protease-resistant
same,MIC CK 1,C.krusei (CK); clinical strain CK 1,2 µg/mL
same,MIC CK 2,C.krusei (CK); clinical strain CK 2,2 µg/mL
same,MIC CK 3,C.krusei (CK); clinical strain CK 3,2 µg/mL
same,MIC KP1,[2],4 µg/mL
same,MIC KP2,[2],2 µg/mL
same,MIC KP 3,[2],1 µg/mL
same,MIC KP 4,[2],1 µg/mL
same,MIC C. albicans,C. albicans ATCC 10231,0.5 µg/mL
same,Serum CRP,"[3]; rat, in vivo",N
same,"indicators of toxicity by ALT, AST, TB, and CRP levels in serum","[3]; rat, in vivo",did not exhibit any indicators of toxicity
same,toxic alterations of liver tissue hepatocytes and stratified epithelium,"[3]; rat, in vivo",did not exhibit any toxic alterations
same,MIC VRE 1,[4]; clinical strain VRE 1,0.25 µg/mL
same,MIC VRE 2,[4]; clinical strain VRE 2,0.25 µg/mL
same,MIC range against clinical A. baumannii strains,[5]; AB,0.25 to 2 µg/mL
same,MIC AB1,[5]; clinical strain AB1,0.25 µg/mL
same,MIC AB2,[5]; clinical strain AB2,2 µg/mL
same,MIC MRSA 1,[6]; clinical strain MRSA 1,0.5 µg/mL
same,MIC MRSA 2,[6]; clinical strain MRSA 2,1 µg/mL
same,MIC MRSA 3,[6]; clinical strain MRSA 3,1 µg/mL
same,MIC KP1,[7],0.5 µg/mL
same,MIC KP2,[7],1 µg/mL
same,MIC KP8,[7],1 µg/mL
same,MIC KP9,[7],0.5 µg/mL
same,MIC KP13,[7],0.5 µg/mL
same,MIC KP22,[7],0.5 µg/mL
same,MIC KP28,[7],1 µg/mL
same,MIC KP29,[7],2 µg/mL
same,MIC KP35,[7],8 µg/mL
same,MIC KP40,[7],2 µg/mL
same,MIC KP41,[7],4 µg/mL
same,MIC KP42,[7],2 µg/mL
same,MIC KP46,[7],2 µg/mL
same,MIC KP52,[7],2 µg/mL
same,MIC PA1,P. aeruginosa (PA),1 µg/mL
same,MIC PA2,P. aeruginosa (PA),1 µg/mL
same,MIC PA3,P. aeruginosa (PA),0.5 µg/mL
same,MIC PA4,P. aeruginosa (PA),1 µg/mL
same,IC50 HaCaT,HaCaT cell line,19.64 µg/mL
same,IC50 3t3,3t3 cell line,17.58 µg/mL
CC1(C)S[C@@H]2[C@H](NC(=O)[C@H](N)c3ccccc3)C(=O)N2[C@H]1C(=O)O [ampicillin],bacterial counts in wound versus control group,[8],significantly reduced
same,"IL1-β, liver",[3]; [9],705.7 ± 87.07
same,"IL1-β, serum",[3]; [9],826.9 ± 105.5
same,"IL1-β, wound tissue",[3]; [9],1779 ± 45.54
same,"IL-6, liver",[3]; [9],35.51 ± 2.82
same,"IL-6, serum",[3]; [9],50.02 ± 2.04
same,"IL-6, wound tissue",[3]; [9],77.60 ± 4.77
same,"TNF-α, liver",[3]; [9],107.0 ± 8.14
same,"TNF-α, serum",[3]; [9],212.2 ± 9.02
same,"TNF-α, wound tissue",[3]; [9],225.4 ± 12.19
same,wound healing by day 4 versus control group,"[3]; MICX40 topically twice a day, p < 0.01",significantly accelerated
same,Serum ALT,"[3]; rat, in vivo",52.4 ± 3 U/L
same,Serum AST,"[3]; rat, in vivo",161.6 ± 12.8 U/L
same,Serum CRP,"[3]; rat, in vivo",N
same,Serum TB,"[3]; rat, in vivo",0.1 mg/dL
same,"indicators of toxicity by ALT, AST, TB, and CRP levels in serum","[3]; rat, in vivo",did not exhibit any indicators of toxicity
